These results are taken from US20110195951A1, “DIAZAINDOLE DERIVATIVES AND THEIR USE IN THE INHIBITION OF C-JUN N-TERMINAL KINASE” (EISAI R&D MANAGEMENT CO., LTD., priority 2008, published 2011).

For this test, the target named is JNK3 (Homo sapiens, UniProt P53779). Description: JNK3 SPA assay (phosphorylation of GST-c-Jun). In kind it is biochemical. The conditions noted are these: 3.33 μM ATP, GST-c-Jun substrate, 30 minutes at room temperature, read-out: IC50 values for compounds (I) against JNK3. As to the method:
JNK1, JNK2, JNK3—SPA Assay
• 1. The compound was dissolved in DMSO to a convenient concentration and this was diluted in 10% DMSO to a five times concentrate of the desired starting concentration (frequently 1:100). • 2. 10 μl of 500 mM EDTA was added to alternative wells of the Opti-plate row, which would receive kinase reaction plus DMSO. This created the negative control. • 3. For the JNK2 and JNK3 assay, compounds were prepared in six 2-fold dilutions with water and each concentration is tested in duplicate. For the JNK1 assay compounds are prepared in four 5-fold dilutions with water which are tested in triplicate. Controls were treated identically. • 4. […] per well of each compound concentration was transferred to an Opti-plate, in duplicate. • 5. 30 μl (JNK2/3 SPA) or 50 μl (JNK1 SPA) of substrate solution (25 mM HEPES pH 7.5, 10 mM magnesium acetate with 3.33 μM ATP (JNK2/3) or 2 μM ATP (JNK1), approximately 7.5 kBq [γ-^33P] ATP, GST-c-Jun, in water) was added to each well. • 6. 50 μl (JNK2/3 SPA) or 30 μl (JNK1 SPA) of kinase solution (JNK in 25 mM HEPES pH 7.5, 10 mM Mg Acetate) was added to each well.
• 7. The plate was incubated for 30 minutes at room temperature. • 8. 100 μl of bead/stop solution was added to each well (5 mg/ml glutathione-PVT-SPA beads, 40 mM ATP in PBS). • 9. Plates were sealed and incubated for 30 minutes at room temperature, centrifuged for 10 minutes at 2500 g and counted. • 10. The IC50 values were calculated as the concentration of the compound being tested at which the phosphorylation of c-Jun was decreased to 50% of the control value.

The structures appear in SMILES notation.

As a reminder, the IC50 is the midpoint of a concentration-inhibition curve.

Sequence of JNK3 (P53779 whole entry, species assumed): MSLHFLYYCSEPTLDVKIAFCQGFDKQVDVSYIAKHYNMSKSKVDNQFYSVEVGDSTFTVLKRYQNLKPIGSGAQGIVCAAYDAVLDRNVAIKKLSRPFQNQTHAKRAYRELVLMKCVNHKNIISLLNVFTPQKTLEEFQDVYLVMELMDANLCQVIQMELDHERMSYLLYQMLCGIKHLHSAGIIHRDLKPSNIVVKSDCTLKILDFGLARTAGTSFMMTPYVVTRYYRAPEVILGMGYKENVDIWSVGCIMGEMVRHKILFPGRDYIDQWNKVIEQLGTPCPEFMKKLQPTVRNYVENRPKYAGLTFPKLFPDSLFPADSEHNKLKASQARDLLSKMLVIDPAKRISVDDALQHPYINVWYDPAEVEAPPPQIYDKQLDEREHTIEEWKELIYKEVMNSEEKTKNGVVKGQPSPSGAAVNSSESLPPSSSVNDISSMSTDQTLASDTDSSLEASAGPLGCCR

On to `Cn1cc(-c2n[nH]c3ncc(C4CCCCC4)cc23)cn1` [Example 1, 5-cyclohexyl-3-(1-methyl-1H-pyrazol-4-yl)-1H-pyrazolo[3,4-b]pyridine], for which the IC50 was 1700 nM.
Turning to `Cn1cc(-c2n[nH]c3ncc([C@H]4CC[C@H](N5CCCOCC5)CC4)cc23)cn1` [Example 2, 4-((1r,4r)-4-(3-(1-methyl-1H-pyrazol-4-yl)-1H-pyrazolo[3,4-b]pyridin-5-yl)cyclohexyl)-1,4-oxazepane], the IC50 was more than 2000 nM.
Regarding `Cn1cc(-c2n[nH]c3ncc([C@H]4CC[C@@H](N5CCCOCC5)CC4)cc23)cn1` [Example 3, 4-((1s,4s)-4-(3-(1-methyl-1H-pyrazol-4-yl)-1H-pyrazolo[3,4-b]pyridin-5-yl)cyclohexyl)-1,4-oxazepane], the IC50 was more than 2000 nM.
For `Cn1cc(-c2c[nH]c3ncc(C4CCCCC4)nc23)cn1` [Example 4, 2-cyclohexyl-7-(1-methyl-1H-pyrazol-4-yl)-5H-pyrrolo[3,2-b]pyrazine], the IC50 was found to be 178 nM.
